{"source": "patent US20060063783A1", "about": "“Sulphonylpiperidine derivatives containing an alkenyl or alkynyl moiety for use as matrix metalloproteinase inhibitors” (ASTRAZENECA AB, priority 2002, published 2006)", "molecular_target": "T1, proTNFα convertase enzyme (TACE) (Homo sapiens, UniProt P78536)", "T1 construct": "a partially purified, isolated enzyme assay, the enzyme being obtained from the membranes of THP-1; endogenous in cells; host or cells: THP-1 cell membranes (partially purified, per Mohler et al. 1994 Nature 370:218-220)", "T1 sequence (P78536 215-824)": "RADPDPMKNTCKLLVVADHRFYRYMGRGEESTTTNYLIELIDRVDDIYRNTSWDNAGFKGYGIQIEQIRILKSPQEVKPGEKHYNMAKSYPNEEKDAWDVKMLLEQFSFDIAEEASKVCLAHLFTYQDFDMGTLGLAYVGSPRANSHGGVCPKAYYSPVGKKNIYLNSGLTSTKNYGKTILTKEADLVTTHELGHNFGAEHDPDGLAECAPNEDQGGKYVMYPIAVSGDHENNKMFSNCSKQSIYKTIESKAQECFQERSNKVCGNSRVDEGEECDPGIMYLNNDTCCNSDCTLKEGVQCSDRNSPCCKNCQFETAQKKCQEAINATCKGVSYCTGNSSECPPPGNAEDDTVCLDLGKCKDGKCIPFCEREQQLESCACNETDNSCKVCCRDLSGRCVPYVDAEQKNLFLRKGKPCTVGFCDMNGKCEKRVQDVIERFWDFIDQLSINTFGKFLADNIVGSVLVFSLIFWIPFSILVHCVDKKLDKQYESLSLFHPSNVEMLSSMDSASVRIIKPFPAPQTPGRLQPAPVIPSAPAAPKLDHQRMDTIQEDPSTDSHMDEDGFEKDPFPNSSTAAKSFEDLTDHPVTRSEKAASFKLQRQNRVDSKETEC", "assay": "Partially purified, isolated enzyme assay for proTNFα convertase (TACE), fluorescent peptide substrate", "type": "biochemical", "details": "10 μM of compound; enzyme from membranes of THP-1", "description": "Recombinant human proMMP13 may be expressed and purified as described by Knauper et al. [V. Knauper et al., (1996) The Biochemical Journal 271:1544-1550 (1996)]. […] Activity is determined by measuring the fluorescence at λex 328 nm and λem 393 nm. Percent inhibition is calculated as follows: % Inhibition is equal to the [Fluorescenceplus inhibitor−Fluorescencebackgrouud] divided by the [Fluorescenceminus inhibitor−Fluorescencebackground].\nThe ability of the compounds to inhibit proTNFα convertase enzyme (TACE) may be assessed using a partially purified, isolated enzyme assay, the enzyme being obtained from the membranes of THP-1 as described by K. M. Mohler et al., (1994) Nature 370:218-220. The purified enzyme activity and inhibition thereof is determined by incubating the partially purified enzyme in the presence or absence of test compounds using the substrate 4′,5′-Dimethoxy-fluoresceinyl Ser.Pro.Leu.Ala.Gln.Ala.Val.Arg.Ser.Ser.Ser.Arg.Cys(4-(3-succinimid-1-yl)-fluorescein)-NH2 in assay buffer (50 mM Tris HCl, pH 7.4 containing 0.1% (w/v) Triton X-100 and 2 mM CaCl2), at 26° C. for 4 hours. The amount of inhibition is determined as for MMP13 except λex 485 nm and λem 538 nm were used. […]", "data": [{"smiles": "CC#CCOC1CCN(S(=O)(=O)CC(CCCc2ncccn2)N(O)C=O)CC1", "note": "(racemic) [compound 1, (R/S)-1-({[4-(But-2-ynyloxy)piperidin-1-yl]sulphonyl}methyl)-4-pyrimidin-2-ylbutyl(hydroxy)formamide]", "values": [{"measurement": "inhibition at 10 µM", "value": 72, "unit": "%"}]}]}
